Values of other authors as cited in patent publication US20250009687A1, “COMPOSITIONS AND METHODS USING A COMBINATION OF NUTRIENTS TO SUPPORT COGNITION AND EMOTIONAL HEALTH IN A MAMMAL” (SOCIETE DES PRODUITS NESTLE S.A., priority 2021, published 2025).

System: TFEB
Conditions: Fu X. et al., Experimental Neurology 2021

For `C[C@@H]1O[C@@H](O[C@H]2[C@H](O[C@H]3C[C@]4(C)[C@H](C[C@@H](O)[C@@H]5[C@@H]([C@]6(C)CC[C@H](C(C)(C)O)O6)CC[C@]54C)[C@@]4(C)CC[C@H](O)C(C)(C)[C@H]34)O[C@H](CO)[C@@H](O)[C@@H]2O)[C@H](O)[C@H](O)[C@H]1O` [PF11], the neuroprotection is given as “neuroprotective” and the “Lamp1 and Ctsd mRNA” value (acting through TFEB) is given as “increase”.
